Data set [1] relates to E. coli K-12 MG1655. The data set can be described thus: Growth Profiler growth of K-12 MG1655 in a range of concentrations of other polyamines and amine-containing compounds. The following applies: for tlag (lag time) / μ (growth rate): Growth Profiler; for screening concentration for which wild-type cells could achieve a growth rate of 0.2-0.3 h^−1: K-12 MG1655, uninhibited growth 0.7-0.9 h^−1 in M9 glucose minimal medium. The text has this: For data obtained with the Growth Profiler, improved image analysis was additionally implemented to obtain the updated growth parameters. In the Tables below, for values labeled in columns with “(1)”, integrated pixel values (which were later converted to OD600 using a calibration curve) were obtained directly from image analysis capabilities in the Growth Profiler software. In the Tables below, for values labeled in columns with “(2)”, a new algorithm was implemented that automatically detected the pixel integration region in each well in each image by locating the darkest pixels in each well. These values were converted to OD600 with a calibration run in the same manner. The new algorithm provided for an improved accuracy in determining the growth rate, since it eliminated a slowly oscillating frequency that was sometimes observed in the original data, potentially related to the practical setup when scanning the plates.
Additionally, each evolved isolate was tested for cross-tolerance toward other polyamines and amine-containing compounds of biotechnological interest. First, K-12 MG1655 was tested in the Growth Profiler screening format for growth in the presence of a range of concentrations of each compound: 1,3-diaminopropane, 1,5-diaminopentane (cadaverine), spermidine, citrulline, ethylenediamine, carnitine, and ornithine. Variable concentrations of these compounds elicited growth inhibition in E. coli K-12 MG1655 (Table 36). […] The compounds citrulline and ornithine are polyamine-containing amino acids. […] Among the only exceptions were PUTR7-1 in citrulline and PUTR5-1 and PUTR6-2 in ornithine.

In data set [2] the test system is Escherichia coli K-12 MG1655. The data set can be described thus: Screening for tolerance in wild-type cells (Biolector, varying concentrations of putrescine or HMDA). The data set is classed as cell-based. The following applies: for mean (1) tlag (lag time) / mean (1) μ (growth rate) / mean (2) tlag (lag time) / mean (2) μ (growth rate): K-12 MG1655; for mean (1) tlag (lag time) / mean (1) μ (growth rate): software version (1); for mean (2) tlag (lag time) / mean (2) μ (growth rate): software version (2); for maximum measured concentration at which K-12 MG1655 can grow: M9+1% glucose. On the procedure:
Escherichia coli K-12 MG1655 was grown overnight in M9 minimal medium+1% glucose and subcultured the following morning to an initial OD600 of 0.05 in M9+1% glucose. Cells were grown to mid-exponential phase (OD600 0.7-1.0) and were back-diluted with fresh medium to an OD600 of 0.7. […] The culture volume in each well was 1.4 mL.
For data obtained with the Biolector microbioreactor system, self-baselined growth series were imported directly into a custom software platform that automatically detects growth phases and exports growth rates and lag times.

Setting [3] is: K-12 MG1655, 5 g/L of the compound.
[4] abbreviates: K-12 MG1655, 10 g/L of the compound.
The mark [5] stands for this setting: K-12 MG1655, 20 g/L of the compound.
Where [6] appears, read: K-12 MG1655, 25 g/L of the compound.
[7] abbreviates: K-12 MG1655, 30 g/L of the compound.
[8] abbreviates: K-12 MG1655, 40 g/L of the compound.
[9] abbreviates: K-12 MG1655, 45 g/L of the compound.
Setting [10] is: K-12 MG1655, 50 g/L of the compound.
Setting [11] is: K-12 MG1655, 60 g/L of the compound.
[12] abbreviates: K-12 MG1655, 75 g/L of the compound.

With `C[N+](C)(C)CC(O)CC(=O)[O-]` (centres unmarked) [carnitine], the “tlag (lag time)” value in data set [1] (setting [3]) is 6.6 h; in data set [1] (setting [4]) it was 7.5 h. Moreover, the “μ (growth rate)” value in data set [1] (setting [3]) was 0.786 h⁻¹; in data set [1] (setting [4]), 0.545 h⁻¹; in data set [1] (setting [5]) it was 0.000 h⁻¹.

Consider `NCCC[C@H](N)C(=O)O` [ornithine], for which the “tlag (lag time)” value is 8.2 h in data set [1] (setting [3]); 17.1 h in data set [1] (setting [4]); 44.2 h in data set [1] (setting [5]); 53.2 h in data set [1] (setting [6]); 82.6 h in data set [1] (setting [7]). The “μ (growth rate)” value in data set [1] (setting [3]) came to 0.439 h⁻¹; in data set [1] (setting [4]), 0.260 h⁻¹; in data set [1] (setting [5]) it was 0.214 h⁻¹; in data set [1] (setting [6]), 0.150 h⁻¹; in data set [1] (setting [7]), 0.076 h⁻¹; in data set [1] (setting [8]), 0.000 h⁻¹. The “screening concentration for which wild-type cells could achieve a growth rate of 0.2-0.3 h^−1” value (“screening concentration” below) in data set [1] is on record as 10 g/L.

Take `NCCCCN` [putrescine, butane-1,4-diamine]: the “mean (1) tlag (lag time)” value in data set [2] (10 g/L) turned out to be 1.4 h; in data set [2] (20 g/L), 2.2 h; in data set [2] (30 g/L) it was 3.4 h; in data set [2] (40 g/L) it was 12.3 h; in data set [2] (50 g/L), 19.8 h. For the same compound, the “mean (1) μ (growth rate)” value was 0.698 h⁻¹ in data set [2] (10 g/L); 0.577 h⁻¹ in data set [2] (20 g/L); 0.350 h⁻¹ in data set [2] (30 g/L); 0.108 h⁻¹ in data set [2] (40 g/L); 0.023 h⁻¹ in data set [2] (50 g/L); 0.000 h⁻¹ in data set [2] (75 g/L). The “mean (1) μ (growth rate)” value in data set [2] (100 g/L) worked out at 0.000 h⁻¹. Moreover, the “mean (2) tlag (lag time)” value in data set [2] (10 g/L) is given as 1.0 h; in data set [2] (20 g/L), 1.5 h; in data set [2] (30 g/L), 6.2 h; in data set [2] (40 g/L), 25.8 h. Further, the “mean (2) μ (growth rate)” value in data set [2] (10 g/L) came out at 0.538 h⁻¹; in data set [2] (20 g/L), 0.392 h⁻¹; in data set [2] (30 g/L), 0.317 h⁻¹; in data set [2] (40 g/L) it was 0.148 h⁻¹; in data set [2] (50 g/L), 0.000 h⁻¹; in data set [2] (75 g/L), 0.000 h⁻¹. Moreover, the “mean (2) μ (growth rate)” value in data set [2] (100 g/L) is 0.000 h⁻¹. In data set [2] (Biolector), the “maximum measured concentration at which K-12 MG1655 can grow” value is recorded as 40 g/L.

In the case of `NCCCN` [1,3-diaminopropane, propane-1,3-diamine], the “screening concentration” value in data set [1] is 35 g/L.

For the compound `NCCCCCN` [cadaverine, pentane-1,5-diamine], the “screening concentration” value in data set [1] stood at 35 g/L.

Regarding `NC(=O)NCCC[C@H](N)C(=O)O` [citrulline], the “tlag (lag time)” value is 6.7 h in data set [1] (setting [6]); 7.0 h in data set [1] (setting [7]); 7.5 h in data set [1] (setting [8]); 8.6 h in data set [1] (setting [9]); 9.2 h in data set [1] (setting [10]); 10.4 h in data set [1] (setting [11]). The “tlag (lag time)” value in data set [1] (setting [12]) was determined as 12.4 h. The “μ (growth rate)” value worked out at 0.759 h⁻¹ in data set [1] (setting [6]); 0.702 h⁻¹ in data set [1] (setting [7]); 0.677 h⁻¹ in data set [1] (setting [8]); 0.508 h⁻¹ in data set [1] (setting [9]); 0.538 h⁻¹ in data set [1] (setting [10]); 0.437 h⁻¹ in data set [1] (setting [11]). Also, the “μ (growth rate)” value in data set [1] (setting [12]) worked out at 0.355 h⁻¹. The “screening concentration” value in data set [1] was determined as 80 g/L.

Take `NCCCCNCCCN` [spermidine, N-(3-aminopropyl)-1,4-diaminobutane]: the “screening concentration” value in data set [1] was determined as 40 g/L.

As for `NCCCCCCN` [HMDA, hexane-1,6-diamine], the “mean (1) tlag (lag time)” value was 1.3 h in data set [2] (10 g/L), 1.4 h in data set [2] (20 g/L), 1.7 h in data set [2] (30 g/L) and 2.6 h in data set [2] (40 g/L). Besides, the “mean (1) μ (growth rate)” value in data set [2] (10 g/L) was found to be 0.806 h⁻¹; in data set [2] (20 g/L) it was 0.601 h⁻¹; in data set [2] (30 g/L), 0.475 h⁻¹; in data set [2] (40 g/L), 0.216 h⁻¹; in data set [2] (50 g/L), 0.000 h⁻¹; in data set [2] (75 g/L), 0.000 h⁻¹. Also, the “mean (1) μ (growth rate)” value in data set [2] (100 g/L) is 0.000 h⁻¹. The “mean (2) tlag (lag time)” value is given as 0.8 h in data set [2] (10 g/L), 0.3 h in data set [2] (20 g/L), 0.0 h in data set [2] (30 g/L) and 2.3 h in data set [2] (40 g/L). Also, the “mean (2) μ (growth rate)” value was determined as 0.605 h⁻¹ in data set [2] (10 g/L); 0.394 h⁻¹ in data set [2] (20 g/L); 0.241 h⁻¹ in data set [2] (30 g/L); 0.136 h⁻¹ in data set [2] (40 g/L); 0.000 h⁻¹ in data set [2] (50 g/L); 0.000 h⁻¹ in data set [2] (75 g/L). The “mean (2) μ (growth rate)” value in data set [2] (100 g/L) is 0.000 h⁻¹. Moreover, the “concentration at which zero/no growth was detected” value in data set [2] (K-12 MG1655, M9+1% glucose, Biolector) came to 50 g/L. The “maximum measured concentration at which K-12 MG1655 can grow” value in data set [2] (Biolector) amounted to 40 g/L.

Turning to `NCCN` [ethylenediamine, 1,2-diaminoethane], the entries for the “tlag (lag time)” value in data set [1] (setting [3]), in data set [1] (setting [4]) and in data set [1] (setting [5]) were 7.0 h, 8.5 h and 32.9 h, respectively. In addition, the “μ (growth rate)” value in data set [1] (setting [3]) was 0.689 h⁻¹; in data set [1] (setting [4]), 0.614 h⁻¹; in data set [1] (setting [5]), 0.152 h⁻¹; in data set [1] (setting [6]), 0.000 h⁻¹. In addition, the “screening concentration” value in data set [1] worked out at 18 g/L.

Take `N=C(N)NCCCCN` [Agmatine, 1-amino-4-guanidinobutane]: the “tlag (lag time)” value in data set [1] (setting [4]) is reported as 5.3 h; in data set [1] (setting [5]), 5.6 h; in data set [1] (setting [6]), 6.1 h; in data set [1] (setting [7]), 6.3 h; in data set [1] (setting [8]), 7.0 h; in data set [1] (setting [10]), 7.9 h. Further, the “μ (growth rate)” value amounted to 0.700 h⁻¹ in data set [1] (setting [4]); 0.630 h⁻¹ in data set [1] (setting [5]); 0.648 h⁻¹ in data set [1] (setting [6]); 0.610 h⁻¹ in data set [1] (setting [7]); 0.632 h⁻¹ in data set [1] (setting [8]); 0.523 h⁻¹ in data set [1] (setting [10]). Besides, the “concentration up to which the compound was non-toxic” value in data set [1] (K-12 MG1655, Growth Profiler) is listed as “up to 50 g/L”.

The values above are taken from patent publication US20190002935A1, “BACTERIAL CELLS WITH IMPROVED TOLERANCE TO POLYAMINES” (DANMARKS TEKNISKE UNIVERSITET, priority 2016, published 2019).
